# According to paper PMC9963013 (Proceedings of the National Academy of Sciences of the …, 2023):
# Biological target: AtSFH5-Sec14 (Arabidopsis thaliana, UniProt Q8GXC6)
# Experiment: X-ray crystal structure, […] Å
# Format: binding
# Conditions: central cavity; acyl chains switched relative to L-α-PA complex
# Sequence of AtSFH5-Sec14 (Q8GXC6 76-365): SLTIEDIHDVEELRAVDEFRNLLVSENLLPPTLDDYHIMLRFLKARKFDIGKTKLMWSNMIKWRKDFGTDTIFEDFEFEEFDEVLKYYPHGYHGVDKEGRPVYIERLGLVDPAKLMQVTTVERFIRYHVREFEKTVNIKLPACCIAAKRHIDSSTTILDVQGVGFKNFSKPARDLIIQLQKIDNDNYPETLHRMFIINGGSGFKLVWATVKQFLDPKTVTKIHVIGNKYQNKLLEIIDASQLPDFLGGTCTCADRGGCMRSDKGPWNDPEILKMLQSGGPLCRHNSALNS
smiles,measurement,value
"CCCCCCCCCCCCCCCC(=O)OC[C@H](COP(=O)(O)O)OC(=O)CCCCCCCCCCCCCCC [DPPA, 1,2-dipalmitoyl-sn-glycero-3-phosphate]","X-ray crystal structure, 2.1 Å",7Y10 for AtSFH5-Sec14 in complex with DPPA
